Measured values published in US12643871B2, “Aryl formamide compound containing chiral sulfur oxide or salt thereof, preparation method, herbicidal composition and use thereof” (Qingdao Kingagroot Chemical Compound Co., Ltd., priority 2019, dated 2026).

Legend:
Format in all cases: in vivo
Capsella bursa-pastoris = test: Comparison experiment (post-emergence, Table 7); conditions: Capsella bursa-pastoris (10-11 leaf)
From the text: (§1) If there is no clear marker, the post-seedling test conditions are the same as above, and the experimental results are shown in Tables 4-7.

Veronica didyma = test: Comparison experiment (post-emergence, Table 7); conditions: Veronica didyma (2 branches)
From the text: as §1

Echinochloa crusgali = test: Comparison experiment (post-emergence, Table 7); conditions: Echinochloa crusgali (3 leaf)
From the text: as §1

Descurainia sophia = test: Comparison experiment (post-emergence, Table 7); conditions: Descurainia sophia (12 leaf)
From the text: as §1

Malachium aquaticum = test: Comparison experiment (post-emergence, Table 7); conditions: Malachium aquaticum (2 branches)
From the text: as §1

Galium aparine = test: Comparison experiment (post-emergence, Table 7); conditions: Galium aparine (5 branches)
From the text: as §1

Sinapis arvensis = test: Comparison experiment (post-emergence, Table 7); conditions: Sinapis arvensis (3.5 leaf)
From the text: as §1

Amaranthus retroflexus = test: Comparison experiment (post-emergence, Table 7); conditions: Amaranthus retroflexus (6 leaf)
From the text: as §1

Alopecurus japonicas = test: Comparison experiment (post-emergence) against racemate / S configuration; conditions: Table 6, post-seedling test conditions
From the text: (§2) The above growth control rates are fresh weight control rates.
(§3) Experiment on weeding effect in post-emergence stage: monocotyledonous and dicotyledonous weed seeds (Descurainia sophia, Capsella bursa-pastoris, Galium aparine, Stellaria media, Lithospermum arvense, Rorippa indica, Alopecurus aequalis, Beckmannia syzigachne, Sclerochloa dura, Phleum paniculatum, Bromus japonicus, Aegilops tauschii, Phalaris arundinacea, Amaranthus retroflexus, Chenopodiaceae, Commelina communis, Sonchus arvensis, convolvulus arvensis, Cirsium setosum, Solanum nigrum, Acalypha australis, Digitaria sanguinalis, Echinochloa crusgalli, Setaria viridis, Setaria glauca, Leptochloa chinensis, Monochoria vaginalis, Sagittaria trifolia, Scirpus juncoides, Cyperus rotundus, Cyperus iria, Cyperus difformis, Fimbristylis, Portulaca oleracea, Xanthium sibiricum, Pharbitis nil) and major crop seeds (wheat, corn, rice, soybean, cotton, oilseed rape, millet, sorghum, potato, sesame, ricinus) were placed in plastic pots filled with soil, then covered with 0.5-2 cm of soil, allowed to grow in a good greenhouse environment. After 2 weeks of sowing, the test plants were treated in the 2 leaf stage. The tested compounds of the present invention were respectively dissolved in acetone, then added with Tween 80 and 1.5 liter/ha of emulsifiable concentrate of methyl oleate as synergist, diluted with a certain amount of water to obtain a solution with a certain concentration, and sprayed with a spray tower onto the plants. After the application, the plants were cultured for 15 days in the greenhouse, and then the experimental results of the weeding were counted. The doses of the used compounds were 500, 250, 125, 60, 30, 15 g/ha, and the averages were obtained by repeating for three times.
as §1

Digitaria sanguinalis [1] = test: as above; conditions: Table 6, post-seedling test conditions
From the text: as §2, §3, §1

Digitaria sanguinalis [2] = test: as above; conditions: Digitaria sanguinalis (3.5 leaf), 16DAA
Leptochloa chinensis = test: as above; conditions: Leptochloa chinensis (4.5 leaf), 16DAA
Abutilon theophrasti = test: as above; conditions: Abutilon theophrasti (3.5 leaf), 16DAA
Green Setaria viridis = test: as above; conditions: for Results of comparison experiment (16DAA), weed control: Setaria viridis (4 leaf)
Corn-Zhengdan 958 = test: Comparison experiment (post-emergence, Table 7), crop safety on corn; conditions: Corn-Zhengdan 958 (3.5 leaf)
From the text: as §1

CC[S+]([O-])c1c(C(F)(F)F)ccc(C(=O)Nc2nnc(C)o2)c1SC (centres unmarked) [Control Compound A′, reference compound]
Results of comparison experiment (16DAA), weed control (Capsella bursa-pastoris; 3 g/ha): 0% | Results of comparison experiment (16DAA), weed control (Capsella bursa-pastoris; 6 g/ha): 10% | Results of comparison experiment (16DAA), weed control (Capsella bursa-pastoris; 12 g/ha): 10% | Results of comparison experiment (16DAA), weed control (Capsella bursa-pastoris; 24 g/ha): 20% | Results of comparison experiment (16DAA), weed control (Capsella bursa-pastoris; 48 g/ha): 30% | Results of comparison experiment (16DAA), weed control (Veronica didyma; 3 g/ha): 10% | Results of comparison experiment (16DAA), weed control (Veronica didyma; 6 g/ha): 10% | Results of comparison experiment (16DAA), weed control (Veronica didyma; 12 g/ha): 20% | Results of comparison experiment (16DAA), weed control (Veronica didyma; 24 g/ha): 20% | Results of comparison experiment (16DAA), weed control (Veronica didyma; 48 g/ha): 20% | Results of comparison experiment (16DAA), weed control (Echinochloa crusgali; 3 g/ha): 10% | Results of comparison experiment (16DAA), weed control (Echinochloa crusgali; 6 g/ha): 20% | Results of comparison experiment (16DAA), weed control (Echinochloa crusgali; 12 g/ha): 30% | Results of comparison experiment (16DAA), weed control (Echinochloa crusgali; 24 g/ha): 40% | Results of comparison experiment (16DAA), weed control (Echinochloa crusgali; 48 g/ha): 50% | Results of comparison experiment (16DAA), weed control (Descurainia sophia; 3 g/ha): 0% | Results of comparison experiment (16DAA), weed control (Descurainia sophia; 6 g/ha): 10% | Results of comparison experiment (16DAA), weed control (Descurainia sophia; 12 g/ha): 20% | Results of comparison experiment (16DAA), weed control (Descurainia sophia; 24 g/ha): 30% | Results of comparison experiment (16DAA), weed control (Descurainia sophia; 48 g/ha): 40% | Results of comparison experiment (16DAA), weed control (Malachium aquaticum; 3 g/ha): 10% | Results of comparison experiment (16DAA), weed control (Malachium aquaticum; 6 g/ha): 10% | Results of comparison experiment (16DAA), weed control (Malachium aquaticum; 12 g/ha): 20% | Results of comparison experiment (16DAA), weed control (Malachium aquaticum; 24 g/ha): 30% | Results of comparison experiment (16DAA), weed control (Malachium aquaticum; 48 g/ha): 50% | Results of comparison experiment (16DAA), weed control (Galium aparine; 3 g/ha): 0% | Results of comparison experiment (16DAA), weed control (Galium aparine; 6 g/ha): 0% | Results of comparison experiment (16DAA), weed control (Galium aparine; 12 g/ha): 0% | Results of comparison experiment (16DAA), weed control (Galium aparine; 24 g/ha): 0% | Results of comparison experiment (16DAA), weed control (Galium aparine; 48 g/ha): 10% | Results of comparison experiment (16DAA), weed control (Sinapis arvensis; 3 g/ha): 0% | Results of comparison experiment (16DAA), weed control (Sinapis arvensis; 6 g/ha): 0% | Results of comparison experiment (16DAA), weed control (Sinapis arvensis; 12 g/ha): 20% | Results of comparison experiment (16DAA), weed control (Sinapis arvensis; 24 g/ha): 40% | Results of comparison experiment (16DAA), weed control (Sinapis arvensis; 48 g/ha): 50% | Results of comparison experiment (16DAA), weed control (Amaranthus retroflexus; 3 g/ha): 10% | Results of comparison experiment (16DAA), weed control (Amaranthus retroflexus; 6 g/ha): 10% | Results of comparison experiment (16DAA), weed control (Amaranthus retroflexus; 12 g/ha): 40% | Results of comparison experiment (16DAA), weed control (Amaranthus retroflexus; 24 g/ha): 50% | Results of comparison experiment (16DAA), weed control (Amaranthus retroflexus; 48 g/ha): 50% | Results of comparison experiment, Alopecurus japonicas (120 g/ha) (Alopecurus japonicas): 20% | Results of comparison experiment, Digitaria sanguinalis (30 g/ha) (Digitaria sanguinalis [1]): 50% | Results of comparison experiment (16DAA), weed control (Digitaria sanguinalis [2]; 3 g/ha): 10% | Results of comparison experiment (16DAA), weed control (Digitaria sanguinalis [2]; 6 g/ha): 10% | Results of comparison experiment (16DAA), weed control (Digitaria sanguinalis [2]; 12 g/ha): 20% | Results of comparison experiment (16DAA), weed control (Digitaria sanguinalis [2]; 24 g/ha): 30% | Results of comparison experiment (16DAA), weed control (Digitaria sanguinalis [2]; 48 g/ha): 30% | Results of comparison experiment (16DAA), weed control (Leptochloa chinensis; 3 g/ha): 0% | Results of comparison experiment (16DAA), weed control (Leptochloa chinensis; 6 g/ha): 0% | Results of comparison experiment (16DAA), weed control (Leptochloa chinensis; 12 g/ha): 0% | Results of comparison experiment (16DAA), weed control (Leptochloa chinensis; 24 g/ha): 10% | Results of comparison experiment (16DAA), weed control (Leptochloa chinensis; 48 g/ha): 20% | Results of comparison experiment (16DAA), weed control (Abutilon theophrasti; 3 g/ha): 10% | Results of comparison experiment (16DAA), weed control (Abutilon theophrasti; 6 g/ha): 20% | Results of comparison experiment (16DAA), weed control (Abutilon theophrasti; 12 g/ha): 30% | Results of comparison experiment (16DAA), weed control (Abutilon theophrasti; 24 g/ha): 40% | Results of comparison experiment (16DAA), weed control (Abutilon theophrasti; 48 g/ha): 50% | Results of comparison experiment, Green Setaria viridis (30 g/ha) (Green Setaria viridis; 30 g/ha, Table 6, post-seedling test conditions): 90% | Results of comparison experiment (16DAA), weed control (Green Setaria viridis; 3 g/ha): 0% | Results of comparison experiment (16DAA), weed control (Green Setaria viridis; 6 g/ha): 0% | Results of comparison experiment (16DAA), weed control (Green Setaria viridis; 12 g/ha): 10% | Results of comparison experiment (16DAA), weed control (Green Setaria viridis; 24 g/ha): 40% | Results of comparison experiment (16DAA), weed control (Green Setaria viridis; 48 g/ha): 50% | Results of comparison experiment (16DAA), crop damage (Corn-Zhengdan 958; 3 g/ha): 0% | Results of comparison experiment (16DAA), crop damage (Corn-Zhengdan 958; 6 g/ha): 0% | Results of comparison experiment (16DAA), crop damage (Corn-Zhengdan 958; 12 g/ha): 0% | Results of comparison experiment (16DAA), crop damage (Corn-Zhengdan 958; 24 g/ha): 0% | Results of comparison experiment (16DAA), crop damage (Corn-Zhengdan 958; 48 g/ha): 0%
